Values of other authors, collected in patent EP3738589B1, “A COMPOSITION FOR THE PREVENTION AND/OR TREATMENT OF OROPHARYNGEAL MUCOSA DISEASES” (Neilos S.r.l., priority 2019, dated 2020).

Key:
[1] = system: oral mucositis caused by chemotherapy; settings: hematopoietic SCT
[2] = system: patients suffering from BPCO; settings: patients suffering from BPCO treated with NAC; from 1.71 times a year
oral mucositis = settings: patients with cancer

CC(=O)N[C@@H](CS)C(=O)O [NAC, N-acetyl-L-cysteine]
days of discomfort are reduced by (BPCO; BPCO): 0.56 days/month
exacerbations of the disease are reduced by (BPCO; BPCO): 0.07 exacerbation/month
reduce hospitalizations due to BPCO by (BPCO; BPCO): 30%
increase in FEV1 (BPCO; from 25%, after a short 4-week-therapy): 30%
incidence and grade of oral mucositis [1]: reduces the incidence and grade of oral mucositis
reduction in exacerbations [2]: 0.96 times a year

O=C1O[C@H]([C@@H](O)CO)C(O)=C1O [vitamin C, ascorbic acid]
severity of oral mucositis (oral mucositis): alleviates the severity of oral mucositis
